From patent US20230033047A1, “Estrogen Metabolite Levels And Cancer Driver Gene Mutations In Lung Cancer Risk Stratification And Treatment” (Institute For Cancer Research d/b/a The Research Institute …, priority 2020, published 2023)
“Also recorded” adds a separate entry of the source. Marks after values point to notes of the source that are not given here.

Assays:
Format in all cases: cell-based, human
[1] = tested on: HBEC-57KT cells; experiment: Soft agar assay (anchorage independent growth, transformation) of HBEC-57KT cells; details: for transformation, ability to grow in soft agar: 2, 10, 50, or 100 nM for 27 weeks, FIG. 3; for colony formation / transformation in soft agar: 35 weeks of chronic treatment; for # Established: Experiment 2, picked clones established in culture
Description: (§1) Three immortalized human bronchial epithelial cell lines (HBEC-57KT, -65KT, and -66KT) were used (see, Ramirez et al., Cancer Res., 2004, 64, 9027-34). […] Cells were immortalized by over-expressing Cdk4 and human telomerase reverse transcriptase (hTERT) to emulate two of the earliest events in lung cancer pathogenesis: abrogation of the p16/RB cell cycle checkpoint pathway and bypass of replicative senescence. HBEC-57KT, -65KT, and -66KT cells were maintained in keratinocyte serum-free (KSF) media containing 50 μg/ml bovine pituitary extract and 5 ng/ml epidermal growth factor. Initially, cells were chronically treated with 0.1% DMSO (vehicle) or 100 nM E2, 4-OHE1 or 4-OHE2. Subsequently, a broader dose range was tested, including 2, 10, 50, or 100 nM […]1, or 2-OHE2. Exposure times ranged from a minimum of 18 weeks and a maximum of 40 weeks. An aliquot from each cell line and treatment was banked in liquid nitrogen every 1-2 weeks. […] Natl. Acad. Sci. USA, 1978, 75, 4001-5). Briefly, each well of a 12-well plate was coated with 0.6% agarose/KSF media. Wells were overlaid with 0.3% agarose/KSF media containing 5000 HBEC-KT cells. RKO colon carcinoma cells were included as a positive control. Each assay was performed in triplicate. After 4-6 weeks, plates were either stained with crystal violet for counting or used to isolate viable clones. Transformed clones were picked using a p200 pipette tip, placed back in culture under pre-treatment conditions in KSF media, and expanded for future analyses.

[2] = tested on: HBEC-66KT cells; experiment: Soft agar assay (anchorage independent growth, transformation) of HBEC-66KT cells; details: chronic treatment, data not shown
Description: Three immortalized human bronchial epithelial cell lines (HBEC-57KT, -65KT, and -66KT) were used (see, Ramirez et al., Cancer Res., 2004, 64, 9027-34). […] Cells were immortalized by over-expressing Cdk4 and human telomerase reverse transcriptase (hTERT) to emulate two of the earliest events in lung cancer pathogenesis: abrogation of the p16/RB cell cycle checkpoint pathway and bypass of replicative senescence. HBEC-57KT, -65KT, and -66KT cells were maintained in keratinocyte serum-free (KSF) media containing 50 μg/ml bovine pituitary extract and 5 ng/ml epidermal growth factor. Initially, cells were chronically treated with 0.1% DMSO (vehicle) or 100 nM E2, 4-OHE1 or 4-OHE2. Subsequently, a broader dose range was tested, including 2, 10, 50, or 100 nM […]1, or 2-OHE2. Exposure times ranged from a minimum of 18 weeks and a maximum of 40 weeks. An aliquot from each cell line and treatment was banked in liquid nitrogen every 1-2 weeks. At specific timepoints (18, 24 and 34 weeks post-treatment), each treated cell line was assayed for transformation by assessing anchorage independent growth in soft agar according to the method of de Larco and Todaro (see, de Larco et al., Proc. Natl. Acad. Sci. USA, 1978, 75, 4001-5). Briefly, each well of a 12-well plate was coated with 0.6% agarose/KSF media. Wells were overlaid with 0.3% agarose/KSF media containing 5000 HBEC-KT cells. RKO colon carcinoma cells were included as a positive control. Each assay was performed in triplicate. After 4-6 weeks, plates were either stained with crystal violet for counting or used to isolate viable clones. Transformed clones were picked using a p200 pipette tip, placed back in culture under pre-treatment conditions in KSF media, and expanded for future analyses.

[3] = tested on: HBEC-65KT cells; experiment: Soft agar assay (anchorage independent growth, transformation) of HBEC-65KT cells; details: for # Established: Experiment 2, picked clones established in culture
Description: as §1

[4] = tested on: HBEC-65KT cells; experiment: Comet assay of DNA damage in HBEC-65KT cells; details: HBEC-65KT (high-activity CYP1B1, low-activity COMT); short-term treatment; FIG. 4
Procedure: (§2) DNA was extracted from expanded clones for sequencing. The mutation status of 50 oncogenic driver genes was examined in transformed cells by next-gen sequencing using an AmpliSeq Illumina for Cancer Hotspot Panel v2. Data were analyzed using Illumina software. DNA damage induced by short-term treatment with estrogens was measured using the Comet assay (see, Mozaffarieh et al., Mol. Vis., 2008, 14, 1584-8). Other assays, however, may be used as desired.

[5] = tested on: HBEC-57KT cells; experiment: Comet assay of DNA damage in HBEC-57KT cells; details: HBEC-57KT (high-activity CYP1B1, low-activity COMT); short-term treatment; FIG. 4
Procedure: as §2

[6] = Experiment 2, chronic treatment, 100 nM, soft agar
[7] = Experiment 3, 18 weeks treated, colonies diffuse, did not grow once picked (not fully transformed)

C[C@]12CC[C@@H]3c4cc(O)c(O)cc4CC[C@H]3[C@@H]1CCC2=O [2-OHE1]
transformation, ability to grow in soft agar [1]: can transform HBEC-57KT cells

C[C@]12CC[C@@H]3c4cc(O)c(O)cc4CC[C@H]3[C@@H]1CC[C@@H]2O [2-OHE2]
transformation, ability to grow in soft agar [1]: can transform HBEC-57KT cells

C[C@]12CC[C@@H]3c4ccc(O)c(O)c4CC[C@H]3[C@@H]1CCC2=O [4-OHE1]
transformation [2]: None of the tested treatments; also recorded: negative for transformation | # Colonies [3, 6]: 0 | # Established [3]: 0 | # Colonies ([3]; Experiment 3, 35 weeks treated): 0 | transformation, ability to grow in soft agar [1]: can transform HBEC-57KT cells | colony formation / transformation in soft agar [1]: also transformed HBEC-57KT cells | # Colonies [1, 6]: 0 | # Established [1]: 0 | # Colonies ([1]; Experiment 3, 35 weeks treated): 5 (small)

C[C@]12CC[C@@H]3c4ccc(O)c(O)c4CC[C@H]3[C@@H]1CC[C@@H]2O [4-OHE2]
transformation [2]: None of the tested treatments; also recorded: negative for transformation | # Colonies [3, 6]: 0 | # Established [3]: 0 | # Colonies ([3]; Experiment 3, 35 weeks treated): 0 | DNA damage, comet tail moment vs. DMSO [4]: induce DNA damage | transformation, ability to grow in soft agar [1]: can transform HBEC-57KT cells | colony formation / transformation in soft agar [1]: efficient colony formation | # Colonies [1, 6]: 40 | # Established [1]: 11 | # Colonies [1, 7]: 4* | # Colonies ([1]; Experiment 3, 35 weeks treated): 54 | DNA damage, comet tail moment vs. DMSO [5]: induce DNA damage

C[C@]12CC[C@@H]3c4ccc(O)cc4CC[C@H]3[C@@H]1CC[C@@H]2O [E2, 17β estradiol]
transformation [2]: None of the tested treatments; also recorded: negative for transformation | colony formation in soft agar ([3]; 35 weeks of chronic treatment): low level colony formation | # Colonies [3, 6]: 11 | # Established [3]: 4 | # Colonies ([3]; Experiment 3, 18 weeks treated): 0 | # Colonies ([3]; Experiment 3, 35 weeks treated): 34 | DNA damage, comet tail moment vs. DMSO [4]: induce DNA damage | transformation, ability to grow in soft agar [1]: can transform HBEC-57KT cells | colony formation / transformation in soft agar [1]: low level colony formation | # Colonies [1, 6]: 13 | # Established [1]: 6 | # Colonies [1, 7]: 0 | # Colonies ([1]; Experiment 3, 35 weeks treated): 30 | DNA damage, comet tail moment vs. DMSO [5]: induce DNA damage
